The target of this assay is T1, TbPLK^as (analogue-sensitive Trypanosoma brucei Polo-like kinase) (Trypanosoma brucei, UniProt Q57VI0, C57V/L118G).
T1 sequence (Q57VI0 1-768 C57V/L118G): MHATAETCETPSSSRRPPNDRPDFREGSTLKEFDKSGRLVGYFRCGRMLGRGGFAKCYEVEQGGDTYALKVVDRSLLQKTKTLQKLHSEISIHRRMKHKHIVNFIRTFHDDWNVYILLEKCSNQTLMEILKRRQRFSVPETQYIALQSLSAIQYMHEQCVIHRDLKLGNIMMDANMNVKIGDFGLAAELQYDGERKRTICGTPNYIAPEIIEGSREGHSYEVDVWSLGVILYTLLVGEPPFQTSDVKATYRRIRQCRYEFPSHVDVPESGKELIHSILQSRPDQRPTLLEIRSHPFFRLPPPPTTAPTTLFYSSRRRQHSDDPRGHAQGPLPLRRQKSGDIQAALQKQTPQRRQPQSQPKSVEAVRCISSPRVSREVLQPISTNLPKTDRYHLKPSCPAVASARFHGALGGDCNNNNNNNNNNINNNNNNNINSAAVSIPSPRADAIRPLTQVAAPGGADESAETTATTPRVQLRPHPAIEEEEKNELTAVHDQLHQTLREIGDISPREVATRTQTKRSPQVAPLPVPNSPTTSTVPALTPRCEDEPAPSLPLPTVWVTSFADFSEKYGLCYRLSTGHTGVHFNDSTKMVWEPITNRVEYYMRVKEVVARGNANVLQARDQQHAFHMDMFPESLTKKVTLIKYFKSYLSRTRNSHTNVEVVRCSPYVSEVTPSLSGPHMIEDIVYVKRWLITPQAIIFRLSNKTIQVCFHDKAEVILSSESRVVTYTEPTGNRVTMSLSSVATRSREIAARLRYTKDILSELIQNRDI
The class given is biochemical.

A word on the IC50: it is the concentration that gives 50% inhibition. Take `Cc1cccc(Cc2nn(C(C)(C)C)c3ncnc(N)c23)c1` [3MB-PP1]: the IC50 is roughly 250 nM.

Values taken from paper PMC3639044 (Molecular Biology of the Cell, 2013).
